Source: patent EP0614464B1, “PEPTIDES AND ANTIBODIES FOR TREATMENT OF RHEUMATOID ARTHRITIS” (PEPTIDE THERAPEUTICS LIMITED, priority 1991, dated 1993)
Ends that are not written are not given here. Peptide text beside a SMILES is read from it.

Key:
IgA-α1AT complex = assay: HPLC analysis of in vitro dissociation of purified IgA-α1AT complex; assay type: biochemical, human; conditions: for HPLC minimum: Table 5, minimum concentration giving complex : free IgA ratio at 20% (base-line 14%), >500µM = no complex dissociation at highest concentration tested; for HPLC %: Table 1
Protocol: The ability of the peptides of the invention to dissociate purified IgA-α1AT complex in vitro was tested as described below. The anti-rheumatic drug D-penicillamine and other synthetic peptides were used as controls. […] The sample was monitored at wavelength 206nm at a flow rate of 1ml/minute with phosphate buffer (0.1M) pH 7.1. […] They represent the ability of the peptides to dissociate the IgA-α1AT complex in vitro. In these experiments, the base-lines level comprises a complex : free IgA ratio of 14% . The minimum concentration of peptide taken to produce a positive dissociation effect is that which results in a complex: free IgA ratio at 20%. In the results tables, all the peptide values are expressed in µMoles.

[1] = system: alternative complement (C3) pathway; assay: Inhibition of C3-activation: preventing IgA-α1AT complex from activating the alternative complement pathway, rabbit erythrocyte haemolysis read-out; assay type: biochemical, human
Protocol: Various peptides were tested for their ability to prevent the IgA-α1AT complex from activating the alternative complement (C3) pathway.
The method of measuring the capacity to activate the alternative complement pathway by the non-immune IgA-α1AT complex and the subsequent inhibition of this activation by anti-rheumatic peptides is described below.
This method was based on the method described by Riches and Stanworth, Immunology Letters, 1980, 1, 363,366, with modification to miniaturise it thus allowing the assay to be carried out on microtitre plates.
The initial observation by Platts-Mills and Ishizaka (J Immunol. (1974) 113, 348,358) that low dilutions of fresh normal human serum, from which calcium had been removed by chelation with 10mM EGTA to block the classical complement pathway, caused greater than 90% haemolysis of unsensitised rabbit erythrocytes when incubated at 37°C was employed in this assay.
The non-immune complex IgA-α1AT had been shown in the past to be the only known soluble complex to activate the alternative pathway complement and […] of the rabbit erythrocytes. This inhibition required biologically active complex.
The buffers solutions required in this assay were (a) Total lysis buffer (1% Triton100 in ultra pure water), (b) Alternative pathway complement fixation diluent (APCFD) which was:- • 83 volumes CFD, DH 7.2 (1 oxoid tablet: 100ml UPW) • 10 volumes 0.1M EGTA pH 7.2 • 7 volumes MgCl2 pH 7.2
Blood was obtained by venipuncture from a healthy human individual. The blood was allowed to clot for 1 hour at room temperature and then stored overnight at 4°C. The serum was removed and stored at -70°C in lml aliquots. For use, the serum was defrosted and 100µl of 0.1m EGTA pH 7.2 and 70µl O.lm MgCl2 pH 7.2 was added.
Rabbit red blood cells (RBC) were obtained by venipuncture of a healthy rabbit and collected into 0.1M citrate buffer pH 6.2. The RBC were washed 3 times in citrate buffer and the cells were stored in this buffer which was changed every week. It was possible to store cells in this way for 3 weeks. Peptides
The peptides were synthesised as described in Example 1 and made up in UPW to lmM. They were kept frozen at -70°C prior to use.
This was prepared as previously described in Example 2. It was kept frozen in small aliquots prior to use.
Using a round bottomed welled flexible microtitre plate 100µl neat serum (with added EGTA and MgCl2) was added to the first wells in duplicate. This was double diluted out, with APCFD to give a volume of 50µl well. 8 test wells (+ duplicates) were sufficient. 8 wells were prepared as a positive control - (100µl 1% Triton/UPW). 8 wells were prepared as a negative control - (100µl APCFD (Blank)).
50µl of APCFD was added to the test wells and 50µl of 1% rabbit RBC was added to all wells. The plate was then incubated at 37°C for 30 minutes and then centrifuged for 10 minutes at 2000 rpm.
75µl of the supernatant was carefully removed and plated onto a flat bottom welled microtitre plate. The plates were then read at 410nm interference, 690nm reference. The zero or blank value was calculated as the mean value of negative control wells and using the mean of the positive control wells, the percentage lysis for serum dilutions was calculated. In future assays the serum dilution in which lysis was approx. 80% of Rb RBC was used. This was usually in the range 1:4 - 1:6 dilution (ie. lml serum : 4ml APCFD - 6ml APCFD).
A 1:1 dilution of IgA-α1AT complex was made with twice concentrated APCFD. 100µl of this 1:1 dilution of complex was added to the first wells in duplicate. This was double diluted out with APCFD to give 50 µl per well. 50µl of the predetermined dilution of serum (see (i) above) was added to each well. Positive and negative control wells as described in (a) above and wells containing serum alone were used as controls. The plates were incubated at 37°C for 30 minutes and then centrifuged at 2000 rpm for 1 minute. […]

[2] = Table 3, minimum peptide concentration giving complex : free IgA ratio at 20% (base-line 14%), 90 minutes at 37°C
[3] = Table 3, minimum concentration of peptide needed to prevent C3 activation
[4] = Table 4, minimum peptide concentration giving complex : free IgA ratio at 20% (base-line 14%), 90 minutes at 37°C
[5] = Table 4, minimum concentration of peptide needed to prevent C3 activation
[6] = Table 5, minimum concentration needed to prevent C3 activation
[7] = minimum peptide concentration giving complex : free IgA ratio at 20% (base-line 14%), 90 minutes at 37°C
[8] = Table 1, minimum concentration of peptide needed to prevent C3 activation

NCCCC[C@H](NC(=O)[C@H](CCCCN)NC(=O)[C@@H](N)CS)C(N)=O [Peptide 114, CKKnh2] (H-Cys-Lys-Lys-NH2)
HPLC% minimum (IgA-α1AT complex; Table 2, minimum peptide concentration giving complex : free IgA ratio at 20% (base-line 14%), 90 minutes at 37°C): 125 µM
C' minimum ([1]; Table 2, minimum concentration of peptide needed to prevent C3 activation): >1250 µM

NCCCC[C@H](NC(=O)[C@@H](N)CS)C(N)=O [Peptide 115, CKnh2, reference compound] (H-Cys-Lys-NH2)
HPLC minimum (IgA-α1AT complex; 90 minutes at 37°C): 500 µM
activity (IgA-α1AT complex; comment in words on Tables 3-5, assay not given, fits the HPLC values): substantially less active

C[C@@H](N)C(=O)N[C@@H](Cc1c[nH]cn1)C(=O)N[C@@H](CS)C(=O)N[C@@H](CCCCN)C(=O)N[C@@H](CCCCN)C(N)=O [Peptide 205, dAHCKKnh2] (HELM PEPTIDE1{[dA].H.C.K.K.[am]}$$$$V2.0)
HPLC (IgA-α1AT complex; [2]): 10 µM
C' [1, 3]: 1.95 µM

C[C@@H](NC(=O)[C@H](CCCCN)NC(=O)[C@H](CCCCN)NC(=O)[C@H](CS)NC(=O)[C@@H](N)Cc1c[nH]cn1)C(N)=O [Peptide 206, HCKKdAnh2] (HELM PEPTIDE1{H.C.K.K.[dA].[am]}$$$$V2.0)
HPLC (IgA-α1AT complex; [4]): 50 µM
C' [1, 5]: 31.3 µM

C[C@@H](N)C(=O)N[C@@H](Cc1c[nH]cn1)C(=O)N[C@@H](CS)C(=O)N[C@@H](CCCCN)C(=O)N[C@@H](CCCCN)C(=O)N[C@H](C)C(N)=O [Peptide 210, dAHCKKdAnh2, reference compound] (HELM PEPTIDE1{[dA].H.C.K.K.[dA].[am]}$$$$V2.0)
HPLC minimum (IgA-α1AT complex; 90 minutes at 37°C): 10 µM
C' minimum [1, 6]: 3.9 µM

DGGHCKK-NH2 [Peptide 118, DGGHCKKnh2]
HPLC (IgA-α1AT complex; [2]): 50 µM

DGHCKK-NH2 [Peptide 119, DGHCKKnh2]
HPLC (IgA-α1AT complex; [2]): 10 µM

EHCKK-NH2 [Peptide 154, EHCKKnh2]
HPLC (IgA-α1AT complex; [2]): 5 µM
C' [1, 3]: <2 µM

HCKKE-NH2 [Peptide 150, HCKKEnh2]
HPLC (IgA-α1AT complex; [4]): 50 µM
C' [1, 5]: 8 µM

HCKKGD-NH2 [Peptide 121, HCKKGDnh2]
HPLC (IgA-α1AT complex; [4]): 125 µM
C' [1, 5]: 62 µM

HCKKGE-NH2 [Peptide 151, HCKKGEnh2]
HPLC (IgA-α1AT complex; [4]): 50 µM
C' [1, 5]: 16 µM

HCKKGGD-NH2 [Peptide 122, HCKKGGDnh2]
HPLC (IgA-α1AT complex; [4]): 50 µM
C' [1, 5]: 31 µM

HCKKGGE-NH2 [Peptide 152, HCKKGGEnh2]
HPLC (IgA-α1AT complex; [4]): 10 µM
C' [1, 5]: 125 µM

HDCKK-NH2 [Peptide 198, HDCKKnh2]
HPLC % (IgA-α1AT complex; [7]): 10 µM
C' [1, 8]: 3.9 µM

HECKK-NH2 [Peptide 204, HECKKnh2]
HPLC % (IgA-α1AT complex; [7]): 10 µM
C' [1, 8]: <1.95 µM

HFCKK-NH2 [Peptide 208, HFCKKnh2]
HPLC % (IgA-α1AT complex; [7]): 10 µM
C' [1, 8]: 3.9 µM

HFCKK-NH2 [Peptide 209, HFCKKnh2]
C' [1, 8]: 3.9 µM

HPCKK-NH2 [Peptide 201, HPCKKnh2]
HPLC % (IgA-α1AT complex; [7]): 10 µM
C' [1, 8]: 3.9 µM

HYCKK-NH2 [Peptide 199, HYCKKnh2]
HPLC % (IgA-α1AT complex; [7]): 10 µM
C' [1, 8]: 3.9 µM

IQHCKK-NH2 [Peptide 134, IQHCKKnh2]
HPLC (IgA-α1AT complex; [2]): 10 µM
C' [1, 3]: 62 µM

IVLVDNKCKCAR [Peptide 89, reference compound]
HPLC minimum (IgA-α1AT complex; 90 minutes at 37°C): 50 µM
C' minimum [1, 6]: 125 µM

NIQHCKK-NH2 [Peptide 135, NIQHCKKnh2]
HPLC (IgA-α1AT complex; [2]): 10 µM
C' [1, 3]: 31 µM

QHCKK-NH2 [Peptide 133, QHCKKnh2]
HPLC (IgA-α1AT complex; [2]): 10 µM
C' [1, 3]: 31 µM
